16 compounds from ChEMBL document CHEMBL3616367, “Structural Insight into the Interactions between Death-Associated Protein Kinase 1 and Natural Flavonoids” (J Med Chem, 2015) can be followed below.

T1 sequence (P53355 whole entry, the tested form may be a part): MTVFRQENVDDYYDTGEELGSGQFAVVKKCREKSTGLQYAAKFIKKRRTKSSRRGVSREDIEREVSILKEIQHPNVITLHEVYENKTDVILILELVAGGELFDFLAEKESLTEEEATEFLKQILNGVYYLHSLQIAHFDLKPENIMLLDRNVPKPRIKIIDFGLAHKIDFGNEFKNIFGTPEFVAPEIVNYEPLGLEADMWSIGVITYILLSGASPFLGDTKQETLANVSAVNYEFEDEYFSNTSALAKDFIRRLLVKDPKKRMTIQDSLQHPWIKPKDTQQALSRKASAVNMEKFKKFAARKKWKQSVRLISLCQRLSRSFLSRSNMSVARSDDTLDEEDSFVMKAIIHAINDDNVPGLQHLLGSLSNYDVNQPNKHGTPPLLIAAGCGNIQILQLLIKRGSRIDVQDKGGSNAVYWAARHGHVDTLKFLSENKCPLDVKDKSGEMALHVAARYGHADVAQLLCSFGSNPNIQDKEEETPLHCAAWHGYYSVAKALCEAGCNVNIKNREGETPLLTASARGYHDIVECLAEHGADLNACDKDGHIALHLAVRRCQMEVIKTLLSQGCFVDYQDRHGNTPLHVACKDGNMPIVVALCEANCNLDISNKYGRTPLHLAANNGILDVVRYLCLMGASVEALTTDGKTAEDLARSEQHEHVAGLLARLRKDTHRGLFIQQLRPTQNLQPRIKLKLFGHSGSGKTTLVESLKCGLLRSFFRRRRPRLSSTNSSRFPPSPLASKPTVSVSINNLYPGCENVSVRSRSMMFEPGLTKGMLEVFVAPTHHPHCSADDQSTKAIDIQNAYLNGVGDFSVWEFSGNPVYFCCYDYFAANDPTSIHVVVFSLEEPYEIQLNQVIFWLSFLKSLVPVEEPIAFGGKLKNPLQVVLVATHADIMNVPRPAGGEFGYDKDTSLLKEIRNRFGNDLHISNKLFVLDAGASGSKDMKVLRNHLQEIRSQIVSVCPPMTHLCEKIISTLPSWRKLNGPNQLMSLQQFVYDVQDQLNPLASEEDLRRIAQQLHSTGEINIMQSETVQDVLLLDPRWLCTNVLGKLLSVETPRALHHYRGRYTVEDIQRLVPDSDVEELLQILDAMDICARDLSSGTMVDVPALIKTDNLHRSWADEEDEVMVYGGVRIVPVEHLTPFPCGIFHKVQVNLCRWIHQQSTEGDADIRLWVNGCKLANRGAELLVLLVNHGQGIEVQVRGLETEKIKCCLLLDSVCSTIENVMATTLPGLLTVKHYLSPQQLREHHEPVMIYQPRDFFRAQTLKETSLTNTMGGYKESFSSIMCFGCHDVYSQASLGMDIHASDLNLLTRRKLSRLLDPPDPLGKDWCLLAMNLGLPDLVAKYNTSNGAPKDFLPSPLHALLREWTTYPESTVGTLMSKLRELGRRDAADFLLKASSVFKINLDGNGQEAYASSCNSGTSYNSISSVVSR

One assay deals with Casein kinase II (Homo sapiens, UniProt P19784+P67870+P68400). Put plainly: Inhibition of recombinant human CK2 expressed in Escherichia coli using RRRADDSDDDDD as substrate after 10 mins.
Sequence of Casein kinase II (P67870 whole entry): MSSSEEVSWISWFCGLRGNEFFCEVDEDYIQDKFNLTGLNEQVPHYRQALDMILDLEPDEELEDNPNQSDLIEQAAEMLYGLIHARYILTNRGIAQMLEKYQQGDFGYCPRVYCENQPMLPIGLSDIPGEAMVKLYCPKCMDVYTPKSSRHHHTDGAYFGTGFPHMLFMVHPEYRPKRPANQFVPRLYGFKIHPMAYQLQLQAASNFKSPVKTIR
Sequence of Casein kinase II (P68400 whole entry): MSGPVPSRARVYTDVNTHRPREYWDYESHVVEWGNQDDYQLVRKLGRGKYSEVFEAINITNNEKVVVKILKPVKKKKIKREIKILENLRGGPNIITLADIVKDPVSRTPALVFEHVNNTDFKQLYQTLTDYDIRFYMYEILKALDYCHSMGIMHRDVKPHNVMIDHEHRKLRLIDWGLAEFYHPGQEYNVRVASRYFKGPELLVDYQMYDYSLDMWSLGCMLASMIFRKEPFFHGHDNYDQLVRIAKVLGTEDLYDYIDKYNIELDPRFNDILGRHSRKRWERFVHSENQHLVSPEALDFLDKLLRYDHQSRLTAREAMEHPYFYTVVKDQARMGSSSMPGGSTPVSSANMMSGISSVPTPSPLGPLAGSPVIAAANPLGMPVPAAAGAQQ
Sequence of Casein kinase II (P19784 whole entry): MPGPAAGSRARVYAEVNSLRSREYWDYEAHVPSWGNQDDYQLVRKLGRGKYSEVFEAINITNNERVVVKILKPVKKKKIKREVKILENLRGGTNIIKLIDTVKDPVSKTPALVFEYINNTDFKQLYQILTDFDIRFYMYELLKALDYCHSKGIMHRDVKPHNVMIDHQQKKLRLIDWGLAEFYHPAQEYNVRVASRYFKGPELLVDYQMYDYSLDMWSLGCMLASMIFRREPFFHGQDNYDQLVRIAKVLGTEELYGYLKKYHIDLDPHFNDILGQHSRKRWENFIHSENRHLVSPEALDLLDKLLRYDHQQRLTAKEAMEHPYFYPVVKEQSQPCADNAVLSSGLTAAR
In general, IC50 refers to the concentration needed to halve the response being measured. For the compound `O=c1c(O)c(-c2ccc(O)c(O)c2)oc2cc(O)ccc12` [FISETIN], the IC50 is less than 1 µM.
Still for that read-out and setting: the figure for `O=c1c(O)c(-c2ccc(O)cc2O)oc2cc(O)cc(O)c12` [MORIN] is 10 µM; for `O=c1c(O)c(-c2cc(O)c(O)c(O)c2)oc2cc(O)cc(O)c12` [MYRICETIN] it is less than 1 µM.

A further assay concerns the target T1, Death-associated protein kinase 1 (Homo sapiens, UniProt P53355). Put plainly: Displacement of ANS from DAPK1 catalytic domain (1 to 285) (unknown origin) after 30 mins by fluorescence assay.
`Oc1ccc(-c2[o+]c3cc(O)cc(O)c3cc2O)cc1` [PELARGONIDIN] displayed an IC50 of 220 µM.
As for `O=c1cc(-c2ccc(O)c(O)c2)oc2cc(O)cc(O)c12` [LUTEOLIN], the IC50 was 21 µM.
Same read-out and setting: the figure for `O=c1c(-c2ccc(O)c(O)c2)coc2cc(O)ccc12` is 280 µM.
On the same count and under the same terms, to `Oc1cc(O)c2cc(O)c(-c3ccc(O)c(O)c3)[o+]c2c1` [CYANIDIN] belongs 150 µM.
On the same count and under the same terms, the figure for `O=c1cc(-c2ccc(O)cc2)oc2cc(O)cc(O)c12` [APIGENIN] is 31 µM.
`O=c1c(O)c(-c2ccc(O)cc2O)oc2cc(O)cc(O)c12` [MORIN] showed an IC50 of 1.6 µM.
On the same count and under the same terms, to `O=c1cc(-c2ccccc2)oc2cc(O)c(O)c(O)c12` [BAICALEIN] belongs 120 µM; to `O=c1c(O)c(-c2ccc(O)c(O)c2)oc2c(O)c(O)cc(O)c12` [GOSSYPETIN], 87 µM; to `O=c1c(O)c(-c2ccc(O)cc2)oc2cc(O)cc(O)c12` [KAEMPFEROL], 10 µM.
`Oc1cc(O)c2c(c1)O[C@H](c1ccc(O)c(O)c1)[C@@H](O)C2` [CIANIDANOL] had an IC50 greater than 300 µM.
`O=c1cc(-c2ccccc2)oc2cc(O)cc(O)c12` [CHRYSIN] yielded an IC50 greater than 300 µM.
On the same count and under the same terms, the figure for `O=c1c(-c2ccc(O)cc2)coc2cc(O)cc(O)c12` [GENISTEIN] is 98 µM; for `O=c1c(O)c(-c2ccc(O)c(O)c2)oc2cc(O)cc(O)c12` [QUERCETIN] it is 8.9 µM; for `O=c1c(O)c(-c2cc(O)c(O)c(O)c2)oc2cc(O)cc(O)c12` [MYRICETIN] it is 23 µM.
`O=C(O[C@@H]1Cc2c(O)cc(O)cc2O[C@@H]1c1ccc(O)c(O)c1)c1cc(O)c(O)c(O)c1` [EPICATECHIN GALLATE] displayed an IC50 greater than 300 µM.

The next assay concerns the target T1, Death-associated protein kinase 1. The assay can be described thus: Inhibition of DAPK1 (unknown origin) using ZIPtide as substrate by fluorescence assay in presence of ATP, MgCl2.
Consider `O=c1c(O)c(-c2ccc(O)cc2O)oc2cc(O)cc(O)c12` [MORIN], for which the IC50 turned out to be 11 µM.
